Results: US9301917B2, “Sustained-release pharmaceutical composition” (Kyoto University, priority 2010, dated 2016)

Assays:
[1] = target: T1, collagen solution (KAI, pH 7, PB buffer) (Bos taurus, UniProt P02453+P02465); assay: Influence of various sugars on gelation (fibrillogenesis time) of 3% collagen solution (Reference Example 3(1)); assay type: physicochemical; settings: collagen 3% [w/v]; sugar 0.05 to 0.5 M (monosaccharide), 0.05 to 0.25 M (disaccharide), 0.05 M raffinose, 0.05, 0.125 M stachyose; without degassing
T1 construct: atelocollagen obtained by treatment with a protease such as pepsin; KAI
T1 sequence (P02453 178-1191 limits assumed): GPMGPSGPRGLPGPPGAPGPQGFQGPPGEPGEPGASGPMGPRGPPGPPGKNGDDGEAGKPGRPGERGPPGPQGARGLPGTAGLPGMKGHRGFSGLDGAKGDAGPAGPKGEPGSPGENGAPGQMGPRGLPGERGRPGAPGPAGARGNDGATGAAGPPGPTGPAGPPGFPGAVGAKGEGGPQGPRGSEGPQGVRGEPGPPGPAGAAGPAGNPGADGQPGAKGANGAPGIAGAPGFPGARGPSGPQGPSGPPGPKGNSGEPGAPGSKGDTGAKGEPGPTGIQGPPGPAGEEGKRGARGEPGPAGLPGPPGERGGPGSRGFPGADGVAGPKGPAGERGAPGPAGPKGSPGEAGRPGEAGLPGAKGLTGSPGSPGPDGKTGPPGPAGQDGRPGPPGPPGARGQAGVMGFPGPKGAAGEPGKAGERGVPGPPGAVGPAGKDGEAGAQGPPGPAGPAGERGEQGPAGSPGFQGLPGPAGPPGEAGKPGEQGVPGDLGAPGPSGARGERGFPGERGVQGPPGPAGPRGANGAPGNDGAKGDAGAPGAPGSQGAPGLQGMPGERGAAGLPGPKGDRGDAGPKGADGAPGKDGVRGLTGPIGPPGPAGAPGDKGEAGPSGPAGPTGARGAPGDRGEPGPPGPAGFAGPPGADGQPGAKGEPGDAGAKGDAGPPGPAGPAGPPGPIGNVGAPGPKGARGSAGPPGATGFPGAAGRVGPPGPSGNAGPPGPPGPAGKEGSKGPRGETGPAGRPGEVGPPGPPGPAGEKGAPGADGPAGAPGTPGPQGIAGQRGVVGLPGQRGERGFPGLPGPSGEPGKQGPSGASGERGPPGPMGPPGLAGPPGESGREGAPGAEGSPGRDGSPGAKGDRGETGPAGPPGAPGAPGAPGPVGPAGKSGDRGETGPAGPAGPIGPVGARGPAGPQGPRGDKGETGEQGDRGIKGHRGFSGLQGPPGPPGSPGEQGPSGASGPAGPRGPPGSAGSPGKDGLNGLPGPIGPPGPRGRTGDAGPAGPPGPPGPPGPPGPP
T1 sequence (P02465 80-1117 limits assumed): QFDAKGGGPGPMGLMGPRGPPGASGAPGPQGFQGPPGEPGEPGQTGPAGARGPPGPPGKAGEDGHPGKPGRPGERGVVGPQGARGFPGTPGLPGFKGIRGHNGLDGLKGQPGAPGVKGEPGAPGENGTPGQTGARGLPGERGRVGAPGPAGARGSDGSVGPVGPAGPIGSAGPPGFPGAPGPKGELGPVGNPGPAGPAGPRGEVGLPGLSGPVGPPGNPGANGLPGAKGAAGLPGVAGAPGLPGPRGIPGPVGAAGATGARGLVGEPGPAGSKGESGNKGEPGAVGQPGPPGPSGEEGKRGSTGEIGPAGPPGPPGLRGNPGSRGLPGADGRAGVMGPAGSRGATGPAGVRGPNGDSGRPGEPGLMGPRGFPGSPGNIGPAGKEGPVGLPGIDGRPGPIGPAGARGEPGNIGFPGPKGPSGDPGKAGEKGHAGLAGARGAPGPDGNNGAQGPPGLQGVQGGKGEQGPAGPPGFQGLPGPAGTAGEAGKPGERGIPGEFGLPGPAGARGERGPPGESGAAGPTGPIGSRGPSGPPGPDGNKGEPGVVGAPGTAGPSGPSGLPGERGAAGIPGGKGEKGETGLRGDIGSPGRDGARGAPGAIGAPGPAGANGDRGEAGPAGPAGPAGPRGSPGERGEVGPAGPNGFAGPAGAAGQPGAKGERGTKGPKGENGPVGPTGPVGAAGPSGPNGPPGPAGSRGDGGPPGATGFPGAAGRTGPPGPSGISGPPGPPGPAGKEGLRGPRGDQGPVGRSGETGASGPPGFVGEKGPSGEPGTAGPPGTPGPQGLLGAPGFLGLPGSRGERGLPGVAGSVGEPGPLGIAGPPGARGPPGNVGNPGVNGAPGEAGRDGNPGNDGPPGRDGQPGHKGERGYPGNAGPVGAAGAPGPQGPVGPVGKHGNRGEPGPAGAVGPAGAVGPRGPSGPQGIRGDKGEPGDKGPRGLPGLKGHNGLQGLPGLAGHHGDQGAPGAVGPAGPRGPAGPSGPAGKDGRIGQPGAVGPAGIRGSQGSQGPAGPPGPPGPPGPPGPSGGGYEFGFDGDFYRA
Experimental: • (1) The kind and concentration of a sugar to be added were changed, and an ability of the sugar to suppress the gelation of a collagen solution was confirmed by measuring a fibrillogenesis time.
The collagen was prepared so that the final concentration was 3% [w/v]. KAI (pH 7, PB buffer) was used as the collagen. The kinds and final concentrations of the used sugars are as described below. • (i) Monosaccharide: Glucose or Fructose
0.05, 0.125, 0.25, 0.5 M • (ii) Disaccharide: sucrose or maltose
0.05, 0.125, 0.25 M • (iii) Trisaccharide: raffinose
0.05 M • (iv) Tetrasaccharide: stachyose
It should be noted that, in this reference example, measurements were carried out without degassing.

KS collagen solution = assay: Influence of tetrasaccharide on gelation of 0.4% collagen solution (Reference Example 3(2)); assay type: physicochemical; settings: collagen 0.4% [w/v], pH 7; 0.05 M stachyose
From the text: (2) The influence of a tetrasaccharide on a gelation ability was confirmed in the same manner as in the above-mentioned method (1) except that: the concentration of the collagen was changed to 0.4% [w/v]; and KS collagen (pH 3) adjusted to pH 7 with a neutralization liquid (7% [w/v] Na2HPO4, 0.9% [w/v] NaCl) was used as the collagen solution. 0.05 M stachyose was used as the tetrasaccharide in the same manner as in the method (1).

[2] = target: T1, collagen solution (KAI, pH 7, PB buffer); assay: Influence of maltotetraose and maltopentaose on gelation of collagen solution (Reference Example 4); assay type: physicochemical; settings: collagen 3% [w/v]; sugar 0.05, 0.125 M
Experimental: The kind and concentration of a sugar to be added were changed, and an ability of the sugar to suppress the gelation of a collagen solution was confirmed by measuring a fibrillogenesis time.
The collagen was prepared so that the final concentration was 3% [w/v]. KAI (pH 7, PB buffer) was used as the collagen. The kinds and final concentrations of the used sugars are as described below. • (i) Tetrasaccharide: maltotetraose
0.05, 0.125 M • (ii) Pentasaccharide: maltopentaose

[3] = In vivo drug sustained-release ability of thyroglobulin formulation (Example 11); settings: thyroglobulin (669 kDa) with atelocollagen 3% [w/v], sucrose 0.25 M; 100 μL subcutaneous in mice; afterwards low sustained-release rate
From the text: The sustained-release amount of thyroglobulin was quantitatively measured by HPLC in a time-dependent manner.
3.5% [w/v] atelocollagen Lot. I-175, Kasai Lac, 2.5 M sucrose, and a 100-mg protein solution were mixed at a blending ratio of 8:1:1. First, syringes filled with atelocollagen and sucrose were connected in series on ice, followed by thorough mixing by reciprocation 50 times. The mixed liquid was mixed with the protein solution by syringe reciprocation 50 times immediately before subcutaneous injection into mice.
The mice were purchased from Japan SLC, Inc. ICR strain female mice were purchased at 7-week-old 1 week before use and used at 8-week old. The collagen mixed liquid was injected into three sites in an amount of 100 μL per site (n=3). Each of samples after 0, minutes, 30 minutes, 45 minutes, 1 hour, 3 hours, 6 hours, and 12 hours was extirpated and heated to 80° C. in an Eppendorf tube so as to denature the collagen into a solution form. Each of the samples was analyzed through use of Agilent HPLC and an SEC-4 gel filtration column to quantify the concentration of the protein in the gel. In the HPLC, thyroglobulin is eluted at 5.927 minutes.

Shark atelocollagen = assay: Spectroscopic evaluation of influence of sugar on gelation of various collagen solutions (Reference Example 2); assay type: physicochemical; settings: 0.25 M sucrose, 1×PBS, 37° C., absorbance at 400 nm, 3 hours
Experimental: (§1) The influences of a sugar on the gelation abilities (fibrillogenic abilities) of various collagen solutions were investigated.
(§2) First, various collagens were each diluted to 0.2% [w/v] with 1 mM HCl. The various collagens used were as follows. • Type I atelocollagen (3.5% KAI: bovine, Lot. 1-107, pH 7) • Type I atelocollagen (3% KAI: porcine, stock of the laboratory, pH 7) • Type II atelocollagen (CL-22, Lot. 622052, pH 3) • Type III atelocollagen (NIP, 0.3% PSC-3-100-20, Lot. BSP310G001, 5 mM acetic acid) • Type I native collagen (1% 1-AC, Lot. 6002173, pH 3) • Shark atelocollagen (produced in the laboratory, powder, stored at −30° C.)
(§3) Distilled water (OTSUKA DISTILLED WATER, Cat. 1324, Lot. 0J90N), 2.5 M sucrose (Wako Pure Chemical Industries, Ltd., Cat. 196-00015, Lot. CKM1674), 100 mg/mL lysozyme (Tokyo Chemical Industry Co., Ltd., Cat. L072), and 10×PBS (DULBECCO′PBS, Dainippon Sumitomo Pharma Co., Ltd., Cat. 28-103-05 FN, Lot. 896458) were added to each of the various collagen solutions at 0.2% [w/v] to prepare a solution having final concentrations of 0.2% [w/v] collagen/0.25 M sucrose/10 mg/mL lysozyme/1×PBS. At this time, the ingredients were added so that the collagen, distilled water, sucrose, lysozyme, and PBS were mixed in this order.
(§4) 100 μl of each of the prepared samples were added to a 96-well microplate and measured for its time-dependent change in absorbance at 400 nm (measurement interval: 30 seconds, measurement time: 3 hours) with an optical absorption microplate reader (TECAN, SUNRISE Thermo RC-R) while heated at 37° C. An average of the measured values (n=3) at the respective times was calculated.

Type II atelocollagen = target: T2, Type II atelocollagen (Bos taurus, UniProt P02459); assay: as above; assay type: physicochemical; settings: 0.25 M sucrose, 1×PBS, 37° C., absorbance at 400 nm, 3 hours
T2 construct: atelocollagen obtained by treatment with a protease such as pepsin; purchased CL-22, Lot; 622052
T2 sequence (P02459 201-1214 limits assumed): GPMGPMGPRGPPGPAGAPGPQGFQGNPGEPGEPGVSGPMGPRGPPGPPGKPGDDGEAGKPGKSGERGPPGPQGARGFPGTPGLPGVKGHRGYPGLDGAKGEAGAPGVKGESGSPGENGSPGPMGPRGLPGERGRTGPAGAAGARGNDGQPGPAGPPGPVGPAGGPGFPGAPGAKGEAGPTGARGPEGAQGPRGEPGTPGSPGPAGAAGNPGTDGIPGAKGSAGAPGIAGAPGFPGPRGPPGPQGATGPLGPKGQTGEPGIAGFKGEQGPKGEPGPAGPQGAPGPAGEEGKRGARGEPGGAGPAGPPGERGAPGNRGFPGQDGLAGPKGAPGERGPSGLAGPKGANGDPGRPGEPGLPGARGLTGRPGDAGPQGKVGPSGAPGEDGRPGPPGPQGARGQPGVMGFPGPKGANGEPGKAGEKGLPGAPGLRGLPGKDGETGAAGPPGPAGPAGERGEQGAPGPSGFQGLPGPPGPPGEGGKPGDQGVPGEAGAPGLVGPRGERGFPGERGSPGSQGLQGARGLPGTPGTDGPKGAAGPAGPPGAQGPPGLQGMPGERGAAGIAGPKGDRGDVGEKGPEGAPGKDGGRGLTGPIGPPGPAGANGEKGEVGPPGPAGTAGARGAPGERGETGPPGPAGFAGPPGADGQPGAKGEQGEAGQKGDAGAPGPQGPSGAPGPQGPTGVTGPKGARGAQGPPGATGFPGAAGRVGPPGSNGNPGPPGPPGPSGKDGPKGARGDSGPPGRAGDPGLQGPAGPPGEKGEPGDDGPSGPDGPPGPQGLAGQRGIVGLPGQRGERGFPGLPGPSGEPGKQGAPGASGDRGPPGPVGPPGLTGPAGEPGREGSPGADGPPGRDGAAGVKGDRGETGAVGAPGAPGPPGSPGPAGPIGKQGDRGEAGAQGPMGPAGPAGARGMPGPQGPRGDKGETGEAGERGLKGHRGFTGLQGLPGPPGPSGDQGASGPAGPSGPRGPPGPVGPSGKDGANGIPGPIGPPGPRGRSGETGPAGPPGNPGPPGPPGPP
Experimental: as §1, §2, §3, §4

Type III atelocollagen = target: T3, Type III atelocollagen (Bos taurus, UniProt P04258); assay: as above; assay type: physicochemical; settings: 0.25 M sucrose, 1×PBS, 37° C., absorbance at 400 nm, 3 hours
T3 construct: atelocollagen obtained by treatment with a protease such as pepsin; purchased NIP PSC-3-100-20, Lot; BSP310G001
T3 sequence (P04258 15-1040 limits assumed): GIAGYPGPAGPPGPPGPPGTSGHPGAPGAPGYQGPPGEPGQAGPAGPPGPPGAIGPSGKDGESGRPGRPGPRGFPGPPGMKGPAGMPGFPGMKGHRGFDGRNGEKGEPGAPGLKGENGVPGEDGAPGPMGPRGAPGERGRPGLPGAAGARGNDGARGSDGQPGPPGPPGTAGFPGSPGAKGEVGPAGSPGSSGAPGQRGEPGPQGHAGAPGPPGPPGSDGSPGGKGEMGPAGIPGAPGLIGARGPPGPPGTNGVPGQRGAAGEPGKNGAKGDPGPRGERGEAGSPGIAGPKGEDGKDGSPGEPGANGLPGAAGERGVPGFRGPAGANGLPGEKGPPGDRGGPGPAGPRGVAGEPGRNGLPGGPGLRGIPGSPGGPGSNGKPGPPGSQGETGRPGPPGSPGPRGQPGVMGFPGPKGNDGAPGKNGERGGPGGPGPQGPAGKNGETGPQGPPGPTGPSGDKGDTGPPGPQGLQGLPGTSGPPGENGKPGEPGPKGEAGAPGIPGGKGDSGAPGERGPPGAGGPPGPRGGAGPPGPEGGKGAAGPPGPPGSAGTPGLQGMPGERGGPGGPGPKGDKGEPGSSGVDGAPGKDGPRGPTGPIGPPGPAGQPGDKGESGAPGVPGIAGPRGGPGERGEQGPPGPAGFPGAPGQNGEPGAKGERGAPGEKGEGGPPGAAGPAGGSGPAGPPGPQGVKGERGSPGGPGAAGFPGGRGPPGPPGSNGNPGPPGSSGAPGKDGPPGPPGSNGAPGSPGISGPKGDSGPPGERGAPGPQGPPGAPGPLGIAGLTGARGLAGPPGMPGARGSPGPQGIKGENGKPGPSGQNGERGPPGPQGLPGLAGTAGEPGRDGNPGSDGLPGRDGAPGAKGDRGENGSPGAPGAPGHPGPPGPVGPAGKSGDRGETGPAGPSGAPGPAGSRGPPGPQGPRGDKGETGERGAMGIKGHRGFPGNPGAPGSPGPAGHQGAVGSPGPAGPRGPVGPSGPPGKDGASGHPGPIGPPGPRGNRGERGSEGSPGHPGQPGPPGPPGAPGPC
Experimental: as §1, §2, §3, §4

Type I native collagen = target: T4, Type I native collagen (Bos taurus, UniProt P02453+P02465); assay: as above; assay type: physicochemical; settings: 0.25 M sucrose, 1×PBS, 37° C., absorbance at 400 nm, 3 hours
T4 construct: Type I native collagen (1% 1-AC, Lot. 6002173, pH 3); purchased 1-AC, Lot; 6002173
T4 sequence (P02465 80-1117): as the sequence (P02465 80-1117 limits assumed) above
T4 sequence (P02453 162-1217): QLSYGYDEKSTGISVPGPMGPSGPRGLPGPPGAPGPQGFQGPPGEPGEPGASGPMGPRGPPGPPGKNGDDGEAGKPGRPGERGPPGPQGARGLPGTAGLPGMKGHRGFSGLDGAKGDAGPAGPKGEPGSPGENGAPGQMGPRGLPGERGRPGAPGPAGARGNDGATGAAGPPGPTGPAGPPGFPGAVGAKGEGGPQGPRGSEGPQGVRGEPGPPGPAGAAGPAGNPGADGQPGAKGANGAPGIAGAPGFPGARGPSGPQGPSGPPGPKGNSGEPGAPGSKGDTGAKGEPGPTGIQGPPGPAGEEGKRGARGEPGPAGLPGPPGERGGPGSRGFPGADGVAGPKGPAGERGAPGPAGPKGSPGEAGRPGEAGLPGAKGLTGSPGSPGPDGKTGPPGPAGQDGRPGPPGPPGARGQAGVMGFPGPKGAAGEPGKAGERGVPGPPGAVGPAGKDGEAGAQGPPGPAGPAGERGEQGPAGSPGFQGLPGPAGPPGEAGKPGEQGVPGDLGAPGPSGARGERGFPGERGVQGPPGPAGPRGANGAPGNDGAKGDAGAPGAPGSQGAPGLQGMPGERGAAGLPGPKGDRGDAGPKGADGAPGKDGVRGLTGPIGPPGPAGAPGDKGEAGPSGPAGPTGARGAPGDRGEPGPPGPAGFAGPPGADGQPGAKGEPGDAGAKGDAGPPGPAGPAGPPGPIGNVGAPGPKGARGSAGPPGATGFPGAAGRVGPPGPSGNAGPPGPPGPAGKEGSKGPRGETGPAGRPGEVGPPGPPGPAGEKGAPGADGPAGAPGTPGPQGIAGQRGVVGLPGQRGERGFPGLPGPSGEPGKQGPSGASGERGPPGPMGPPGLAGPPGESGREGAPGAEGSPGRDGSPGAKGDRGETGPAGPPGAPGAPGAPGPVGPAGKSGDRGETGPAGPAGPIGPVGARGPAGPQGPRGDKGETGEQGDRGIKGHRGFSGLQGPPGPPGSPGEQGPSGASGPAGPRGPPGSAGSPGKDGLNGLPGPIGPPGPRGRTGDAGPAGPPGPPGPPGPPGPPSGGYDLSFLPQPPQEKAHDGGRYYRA
Experimental: as §1, §2, §3, §4

[4] = target: T5, collagen solution (KOKEN ATELOCOLLAGEN IMPLANT) (Bos taurus, UniProt P02453+P02465); assay: Influence of sucrose, glucose and glucuronic acid on gelation of collagen solution (Reference Example 7); assay type: physicochemical; settings: sugar 0.01 M, collagen 3% [w/v], pH 7.4, 37° C., absorbance at 400 nm
T5 construct: atelocollagen obtained by treatment with a protease such as pepsin; purchased KOKEN CO., LTD; KOKEN ATELOCOLLAGEN IMPLANT
T5 sequence (P02453 178-1191 limits assumed): as the sequence (P02453 178-1191 limits assumed) above
T5 sequence (P02465 80-1117 limits assumed): as the sequence (P02465 80-1117 limits assumed) above
Experimental: The following sugars were used as sugars to be added, and an ability of the sugar to suppress the gelation of a collagen solution was confirmed by measuring a fibrillogenesis time.
Monosaccharides: Glucose and Glucuronic Acid
Each of various sugar solutions was added to a collagen solution (pH 7.4, final concentration: 3% [w/v]) (KOKEN ATELOCOLLAGEN IMPLANT [KOKEN CO., LTD.]) so that the final concentration was 0.01 M, followed by mixing. The mixed solution was measured for its time-dependent change in absorbance at 400 nm with a spectrophotometer while being heated at 37° C.

Type I atelocollagen = assay: Spectroscopic evaluation of influence of sugar on gelation of various collagen solutions (Reference Example 2); assay type: physicochemical, bovine, porcine; settings: 0.25 M sucrose, 1×PBS, 37° C., absorbance at 400 nm, 3 hours
Experimental: as §1
First, various collagens were each diluted to 0.2% [w/v] with 1 mM HCl. The various collagens used were as follows. • Type I atelocollagen (3.5% KAI: bovine, Lot. 1-107, pH 7) • Type I atelocollagen (3% KAI: porcine, stock of the laboratory, pH 7) • Type II atelocollagen (CL-22, Lot. 622052, pH 3) • Type III atelocollagen (NIP, 0.3% PSC-3-100-20, Lot. BSP310G001, 5 mM acetic acid) • Type I native collagen (1% 1-AC, Lot. 6002173, pH 3) • Shark atelocollagen (produced in the laboratory, powder, stored at −30° C.) […]
as §4

[5] = target: T5, collagen solution (KOKEN ATELOCOLLAGEN IMPLANT); assay: Spectroscopic evaluation of influence of sugar on gelation ability of collagen solution (Reference Example 1); assay type: physicochemical; settings: sucrose 0.01 or 0.25 M in collagen 3% [w/v], pH 7.4, 37° C., absorbance at 400 nm
Experimental: Specifically, a sucrose solution was added to a collagen solution (pH 7.4, final concentration: 3% [w/v]) (product name: KOKEN ATELOCOLLAGEN IMPLANT) so that the final concentration was 0, 0.01, or 0.25 M, followed by mixing. The mixed solution was measured for its time-dependent change in absorbance at 400 nm with a spectrophotometer while being heated at 37° C.

O=C(CO)[C@@H](O)[C@H](O)[C@H](O)CO [fructose]
suppression of gelation of collagen (fibrillogenesis time) [1]: suppressed in a concentration-dependent manner

OC[C@H]1O[C@H](O[C@H]2[C@H](O)[C@@H](O)C(O)O[C@@H]2CO)[C@H](O)[C@@H](O)[C@@H]1O (mixture of isomers) [maltose]
suppression of gelation of collagen (fibrillogenesis time) [1]: suppressed in a concentration-dependent manner

OC[C@H]1O[C@H](OC[C@H]2O[C@H](OC[C@H]3O[C@H](O[C@]4(CO)O[C@H](CO)[C@@H](O)[C@@H]4O)[C@H](O)[C@@H](O)[C@@H]3O)[C@H](O)[C@@H](O)[C@H]2O)[C@H](O)[C@@H](O)[C@H]1O [stachyose]
fibrillogenesis time of the collagen solution (KS collagen solution): delayed | suppression of gelation of collagen (fibrillogenesis time) [1]: hardly confirmed

OC[C@H]1O[C@H](O[C@H]2[C@H](O)[C@@H](O)[C@@H](O[C@H]3[C@H](O)[C@@H](O)[C@@H](O[C@H]4[C@H](O)[C@@H](O)C(O)O[C@@H]4CO)O[C@@H]3CO)O[C@@H]2CO)[C@H](O)[C@@H](O)[C@@H]1O (some centres unmarked) [Maltotetraose, maltotetraose]
fibrillogenesis suppressing effect (fibrillogenesis time) [2]: comparable to that of the monosaccharide

thyrogloblin: high molecular weight protein (669 kDa) used as drug in sucrose/atelocollagen formulation
period of fast release after the injection [3]: ≤ 3 h

maltopentaose
fibrillogenesis suppressing effect (fibrillogenesis time) [2]: substantially no delay

OC[C@H]1O[C@H](OC[C@H]2O[C@H](O[C@]3(CO)O[C@H](CO)[C@@H](O)[C@@H]3O)[C@H](O)[C@@H](O)[C@@H]2O)[C@H](O)[C@@H](O)[C@H]1O [raffinose]
suppression of gelation of collagen (fibrillogenesis time) [1]: delayed as compared to the case of adding no sugar

OC[C@H]1O[C@@](CO)(O[C@H]2O[C@H](CO)[C@@H](O)[C@H](O)[C@H]2O)[C@@H](O)[C@@H]1O [sucrose]
influence on gelation of collagen solution (Shark atelocollagen): suppressed gelation | influence on gelation of collagen solution (Type II atelocollagen): suppressed gelation | influence on gelation of collagen solution (Type III atelocollagen): suppressed gelation | influence on gelation of collagen solution (Type I native collagen): suppressed gelation | gelation suppressing effect [4]: high gelation suppressing effect | influence on gelation of collagen solution (Type I atelocollagen): suppressed gelation | suppression of gelation of collagen (fibrillogenesis time) [1]: suppressed in a concentration-dependent manner | influence on gelation of collagen solution [5]: delayed in a sucrose concentration-dependent manner

O=C[C@H](O)[C@@H](O)[C@H](O)[C@H](O)C(=O)O [glucuronic acid]
gelation suppressing effect [4]: low gelation suppressing effect as compared to glucose
